# Measured values from PMC2762729 (Biochemistry, 2009).
# “Also recorded” adds a separate entry of the source. Read-outs that look alike come from different tables or passages of the source.
# Tests used:
# [1] = system: saporin-L1; type: biochemical, Saponaria officinalis
# [2] = target: T1, saporin-L1 (Saponaria officinalis, UniProt Q2QEH4); assay: Competitive inhibition of A-10 RNA
# [3] = system: saporin-L1; type: biochemical, Saponaria officinalis; remark: listed apart in the source
# [4] = target: T1, saporin-L1; type: biochemical; details: read-out: EC50, rescue of translation; n = 3
# [5] = target: T1, saporin-L1; assay: Competitive inhibition of A-10 RNA; remark: listed apart in the source
# [6] = system: 35-mer synthetic SRL mimic with GAGA tetraloop; details: cited from earlier work
# [7] = system: saporin-L1; details: pH 7.8; cited from earlier work
# T1 sequence (Q2QEH4 22-280 limits assumed): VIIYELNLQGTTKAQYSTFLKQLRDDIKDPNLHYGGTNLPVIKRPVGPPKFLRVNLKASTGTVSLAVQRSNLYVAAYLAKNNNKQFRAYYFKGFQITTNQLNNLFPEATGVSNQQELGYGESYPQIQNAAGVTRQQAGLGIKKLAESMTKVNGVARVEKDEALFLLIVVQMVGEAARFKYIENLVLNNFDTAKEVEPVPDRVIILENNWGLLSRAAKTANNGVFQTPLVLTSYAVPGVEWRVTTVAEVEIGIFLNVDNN
molecule,measurement,setting,value
5′-CGCGAGAGCG-3′ [A-10 RNA],"Km, fold lower with saporin-L1 than with saporin-S6",[1],4 fold
same,"Km, fold tighter than poly(A) RNA",[1],4.5 fold
same,"kcat/Km, fold increased catalytic efficiency over poly(A) RNA",[1],45 fold
same,"kcat/Km, fold more efficient with saporin-L1 than with saporin-S6",[1],"4,800 fold"
same,Km,[1]; pH 7.7,95 ± 7 µM
same,kcat,[1]; pH 7.7,7.33 ± 0.267 s⁻¹
"Nc1ncnc2c(CN3C[C@H](CO)[C@@H](O)C3)c[nH]c12 [9-DA, 9-deazaadenine-9-methylene-N-hydroxypyrrolidine (DADMeA)]",Ki,[2],> 500 µM
"Nc1ncnc2c(CN3C[C@H](CO)[C@@H](O)C3)c[nH]c12 [9-DA, 9-deazaadenine-9-methylene-N-hydroxypyrrolidine]",inhibition of saporin-L1 (in words),[3],not an inhibitor; also recorded: poor inhibitor
same,Ki,[3]; read-out: Ki (no slow onset observed),> 500 µM
CO[C@@H]1[C@H](OP(=O)(O)OCCCO)[C@@H](COP(=O)(O)O[C@H]2CN(Cc3c[nH]c4c(N)ncnc34)C[C@@H]2COP(=O)(O)OCCCO)O[C@H]1n1cnc2c(=O)[nH]c(N)nc21 [s3(9-DA)Gs3 2′-OMe],EC50,[4],0.036 µM
same,Ki,[5],0.0064 ± 0.0017 µM
gelonin,activity (in words),[6],no detectable activity
poly(A),Km,[7],639 ± 32 µM
same,kcat,[7],1.02 ± 0.017 s⁻¹
trichosanthin,activity (in words),[6],no detectable activity
